Source: patent US6008372A, “Substituted dinaphthylmethyl and diheteroarylmethylacetyl histidine inhibitors of protein farnesyltransferase” (Warner-Lambert Company, priority 1998, dated 1999)
Like-named read-outs stand apart in the source and are kept apart here.

Key:
[1] = test system: human lung carcinoma with a k-ras mutation; conditions: nude mice; cited from earlier work
[2] = biological target: T1, rat brain farnesyl protein transferase (Rattus norvegicus, UniProt Q02293+Q04631); test: Protein:farnesyltransferase (PFT/FPT) inhibitory activity assay; assay type: biochemical
T1 construct: 40-fold purified rat brain farnesyl protein transferase; from tissue; host or cells: rat brain

[3] = test system: Ras farnesylation in H-ras Me 12/+ cells; test: Gel shift assay: inhibition of Ras farnesylation in H-ras Me 12/+ cells; assay type: cell-based; conditions: 18-hour incubation, read-out: Inhibition of Ras Farnesylation (Minimum Effective Dose)
Procedure: (§1) Twenty-four hours after planting 2×10^6 ras-transformed cells per treatment condition, the farnesylation inhibitor is added at varying concentrations. Following an 18-hour incubation period, cells are lysed in phosphate-buffered saline containing 1% Triton X-100, 0.5% sodium deoxycholate, and 0.1% SDS, pH 7.4 in the presence of several protease inhibitors (PMSF, antipain, leupeptin, pepstatin A, and aprotinin all at 1 μg/mL). Ras protein is immunoprecipitated from the supernatants by the addition of 3 μg v-H-ras Ab-2 (Y13-259 antibody from Oncogene Science). After overnight immunoprecipitation, 30 μL of a 50% protein G-Sepharose slurry (Pharmacia) is added followed by 45-minute incubation. Pellets are resuspended in 2× tris-glycine loading buffer (Novex) containing 5% B-mercaptoethanol and then denatured by 5 minutes boiling prior to electrophoresis on 14% Tris-glycine SDS gels. Using Western transfer techniques, proteins are transferred to nitrocellulose membranes followed by blocking in blocking buffer. Upon overnight incubation with primary antibody (pan-ras Ab-2 from Oncogene Science), an antimouse HRP conjugate secondary antibody (Amersham) is employed for detection of the ras protein. Blots are developed using ECL techniques (Amersham).
(§2) The data in Table 1 show farnesyl protein transferase inhibitory activity, and activity in the gel shift assay against ras protein of selected compounds of Formula I.

[4] = test system: Ras farnesylation in H-ras-NIH3T3 cells; test: Gel shift assay: inhibition of Ras farnesylation in H-ras-NIH3T3 cells; assay type: cell-based; conditions: 18-hour incubation, read-out: Inhibition of Ras Farnesylation (Minimum Effective Dose)
Procedure: as §1, §2

SMILES | blocks the growth of a human lung carcinoma with a k-ras mutation [1] | IC50 ([2]; Hepes (without 5 mM phosphate), read-out: Farnesyl Protein Transferase Inhibition, Hepes, IC50) [nM] | IC50 ([2]; Hepes/5 mM PO4^-3, pH 7.4, read-out: Farnesyl Protein Transferase Inhibition, Hepes/5 mM PO4^-3, IC50) [nM] | minimal effective concentration [3] [µM] | minimal effective concentration [4] [µM]
CSCC[C@H](NC(=O)c1ccc(NC[C@@H](N)CS)cc1-c1ccccc1)C(=O)O [FTI-276] | blocks the growth in nude mice of a human lung carcinoma with a k-ras mutation |  |  |  | 
COC(=O)[C@H](Cc1cncn1C)NC(=O)C(Cc1cccc2ccccc12)Cc1cccc2ccccc12 [Example 6, (S)-3-(3-Methyl-3H-imidazol-4-yl)-2-(3-naphthalen-1-yl-2-naphthalen-1-ylmethyl-propionylamino)-propionic acid, methyl ester] |  | 420 | 220 | 1 | 2.5
